# Reference: publication PMC6173502 (2018)
# Experiments:
# Test in all cases: ITC
# [1] = test system: BCL2 3-5-3 (DNA, G4) CGGGCACGGGAAAAAGGGAACGGGAAC; conditions: K+ 150 mM (KCl); 20 mM Tris, 1 mM EDTA, 30% DMSO, pH 7.2, 25 °C; mode 1 of 3
# [2] = test system: BCL2 3-6-2 (DNA, G4) CGGGCACGGGAAAAAAGGGACGGGAAC; conditions: K+ 150 mM (KCl); 20 mM Tris, 1 mM EDTA, 30% DMSO, pH 7.2, 25 °C; mode 1 of 3
# [3] = test system: hTel22 (DNA, G4) AGGGTTAGGGTTAGGGTTAGGG; conditions: 20 mM Tris, 1 mM EDTA, 30% DMSO, pH 7.2, 25 °C, mode 1 of 3
# [4] = test system: KRAS 6-4-6 (DNA, G4) GGGCAATATGGGAAAAGGGAAAAAAGGGAA; conditions: K+ 150 mM (KCl); 20 mM Tris, 1 mM EDTA, 30% DMSO, pH 7.2, 25 °C; mode 1 of 3
# [5] = test system: KRAS 6-4-4 (DNA, G4) GGGCAATATGGGAAAAGGGAAAAGGGAAAA; conditions: K+ 150 mM (KCl); 20 mM Tris, 1 mM EDTA, 30% DMSO, pH 7.2, 25 °C; mode 1 of 3
compound,measurement,setting,value
N=C(N)c1ccc(N=NNc2ccc(C(=N)N)cc2)cc1,Ka,[1],17.5 × 10^7
same,Ka,[2],41.5 × 10^7
same,Ka,[3]; K+ 150 mM (KCl),13.7 × 10^7
same,Ka,[3]; Na+ 150 mM (NaCl),18.2 × 10^7
same,Ka,[4],3.85 × 10^7
same,Ka,[5],25.5 × 10^7
